# Measured values published in the NIST ThermoML archive (doi:10.1021/je700202h).
# ± gives the expanded uncertainty stated by the source.
# Settings: 101.33 kPa, Liquid
mass density (293.15 K) [kg/m3],viscosity (293.15 K) [mPa·s],mass density (298.15 K) [kg/m3],viscosity (298.15 K) [mPa·s],mass density (303.15 K) [kg/m3],viscosity (303.15 K) [mPa·s],mass density (308.15 K) [kg/m3],viscosity (308.15 K) [mPa·s],mass density (313.15 K) [kg/m3],viscosity (313.15 K) [mPa·s],Compound
682.8 ± 0.7,0.4142 ± 0.0078,678.6 ± 0.8,0.3928 ± 0.0075,674.7 ± 0.8,0.3728 ± 0.0072,670.7 ± 0.9,0.3541 ± 0.007,665.6 ± 0.9,0.3374 ± 0.0067,CCCCCCC [heptane]
717.9 ± 0.9,0.7091 ± 0.012,714 ± 0.9,0.664 ± 0.012,710.8 ± 1,0.6217 ± 0.011,706.7 ± 1,0.5849 ± 0.011,702.8 ± 1.1,0.55 ± 0.01,CCCCCCCCC [nonane]
